Measured values taken from patent US20250101062A1, “ANTIMICROBIAL PEPTIDES” (Board of Regents of the University of Nebraska, priority 2023, published 2025).
≈ marks a conversion by molar mass, not a printed value. Like-named read-outs stand apart in the source and are kept apart here. Where a SMILES comes first, the peptide text is derived from it. Where no end group is shown, it is not given here.

Key:
[1] = Effect of MHB dilution on antibacterial activity of a panel of antibiotics; format: cell-based; conditions: MHB from 100 to 12.5%
Method: FIGS. 2A-2D show biofilm disruption activity of human LL-37 (FIGS. 2A and 2B) and 17BIPHE2 (FIGS. 2C and 2D) against the 24 hour preformed biofilms of S. aureus USA300 LAC in different MHB media: 12.5% MHB (FIGS. 2A and 2C) and 100% MHB (FIGS. 2B and 2D). FIGS. 2E-2H show the treatment outcome of LL-37 (FIGS. 2E and 2F) and 17BIPHE2 (FIGS. 2G and 2H) against the 24-hour preformed biofilms of E. coli E423-17 in different MHB media: 12.5% MHB (FIGS. 2E and 2G) and 100% MHB (FIGS. 2F and 2H). […] Growth curves of S. aureus USA 300 LAC (FIGS. 2J-2K) and P. aeruginosa 152 (FIGS. 2L-2M) in 12.5%, 25%, 50% and 100% MHB or TSB medium (curves from bottom to top).
The effects of MHB dilution on the antimicrobial activity of a panel of antibiotics was also compared (FIG. 2I).

S. aureus USA300 LAC = assay: microbe, parasite or virus in culture; format: cell-based, Staphylococcus aureus; conditions: for change of MIC / activity: 10% human serum
Method: (§1) The following resistant bacterial clinical strains were used in this study: S. aureus USA300 LAC, S. epidermidis 1457, E. coli E423-17, P. aeruginosa E411-17, K. pneumoniae E406-17, and A. baumannii B28-16. While the S. aureus USA300 strain is methicillin-resistant, most of the Gram-negative bacteria contain extended-spectrum beta-lactamase and are resistant to beta-lactam antibiotics. Peptide activity against bacteria was tested using an established lab protocol (Mishra, et al. (2017) Acta Biomater., 49:316-328). In brief, a peptide concentration gradient with twofold dilution was made in the 96-well polystyrene microplate at 10 μL per well. Bacteria were grown to the exponential phase (i.e., optical density at 600 nm≈0.5), diluted to ˜10^5 CFU/mL in different percentages of MHB, TSB, or LB, and partitioned into the 96-well microplate at 90 μL per well. […] They were diluted with autoclaved distilled water to obtain different percentages. The microplates were incubated at 37° C. overnight and read on a ChroMate™ 4300 microplate reader at 600 nm (GMI, Ramsey, MN). The peptide concentration in the wells without bacterial growth is the MIC. As is the convention, MIC values were represented as ranges.
(§2) For pH effects on peptide activity, the pH of the medium was adjusted to a targeted pH for the autoclave and then remeasured at room temperature. For salt and serum effects on peptide activity, stock NaCl solution or human serum was added to the media.
(§3) Peptide activity against bacteria were tested using the CLSI standard procedure with minor modifications (Clinical and Laboratory Standards Institute (2018) Performance standards for antimicrobial susceptibility testing, 9th ed.; Mishra, et al. (2019) Proc. Natl. Acad. Sci., 116(27):13517-13522). In brief, a peptide concentration gradient with twofold dilution was made in the 96-well polystyrene microplate at 10 μL per well. Bacteria were grown to the exponential phase (i.e., optical density at 600 nm≈0.5), diluted to ˜10^5 CFU/mL in MHB, and partitioned into the 96-well microplate at 90 μL per well. The microplates were incubated at 37° C. overnight and read on a ChroMate® 4300 Microplate Reader at 600 nm (GMI, Ramsey, MN). The peptide concentration in the wells without bacterial growth is the minimal inhibitory concentration (MIC). As the convention, MIC values were represented as ranges.
(§4) For pH effects on peptide activity, the pH of the medium was adjusted to a targeted pH for autoclave and then remeasured at room temperature. For salt and serum effects on peptide activity, stock NaCl solution or human serum were added to the media.

P. aeruginosa E411-17 = assay: microbe, parasite or virus in culture; format: cell-based, Pseudomonas aeruginosa; conditions: for MIC: read-out: Antimicrobial activity (MIC)
Method: as §1, §2, §3, §4

S. epidermidis 1457 = assay: microbe, parasite or virus in culture; format: cell-based, Staphylococcus epidermidis; conditions: read-out: Antimicrobial activity (MIC) S. epidermidis 1457
Method: as §1, §3

A. baumannii B28-16 = format: cell-based, Acinetobacter baumannii; conditions: B28-16
Method: as §1, §3

E. coli E423-17 = format: cell-based, Escherichia coli
Method: as §1, §2, §3, §4

E. coli = conditions: data from the antimicrobial peptide database; cited from earlier work
K. pneumoniae E406-17 = format: cell-based, Klebsiella pneumoniae
Method: as §1, §3

[2] = Staphylococcus aureus, MRSA / USA300, MRSA in MHB, 20% serum, read-out: Antimicrobial activity (MIC)
[3] = Staphylococcus aureus, MRSA / USA300, pH 6.3, MRSA in MHB, pH 6.3, read-out: Antimicrobial activity (MIC)
[4] = Staphylococcus aureus, MRSA / USA300, pH 7.2, MRSA in MHB, pH 7.2, read-out: Antimicrobial activity (MIC)
[5] = USA300, read-out: Antimicrobial activity (MIC)

## NCC[C@H](O)C(=O)N[C@@H]1C[C@H](N)[C@@H](O[C@H]2O[C@H](CN)[C@@H](O)[C@H](O)[C@H]2O)[C@H](O)[C@H]1O[C@H]1O[C@H](CO)[C@@H](O)[C@H](N)[C@H]1O [Amikacin]
[1]
  change in MIC with dilution of MHB: small changes in MIC values
S. aureus USA300 LAC; MRSA in MHB
  change of MIC / activity: fourfold
S. aureus USA300 LAC; [2]
  MIC: 32 to 64 µM (≈ 18.7 to 37.5 µg/mL)
S. aureus USA300 LAC; [3]
  MIC: 32 µM (≈ 18.7 µg/mL)
S. aureus USA300 LAC; [4]
  MIC: 8 µM (≈ 4.68 µg/mL)

## CCCCCCCCCC(=O)N[C@H](CCCCN)C(=O)N[C@H](CCCNC(=N)N)C(=O)N[C@@H](C(=O)N[C@@H](C(=O)N[C@H](CCC(N)=O)C(=O)N[C@H](CCCNC(=N)N)C(=O)N[C@@H](C(=O)N[C@H](CCCCN)C(N)=O)[C@H](C)CC)C(C)C)[C@H](C)CC [C10-KR8, reference compound] (HELM PEPTIDE1{[CCCCCCCCCC(=O)[*:2]].[dK].[dR].[dI].[dV].[dQ].[dR].[dI].[dK].[am]}$$$$V2.0; N-terminus and C-terminus assumed)
P. aeruginosa E411-17; E411-17
  Antimicrobial activity (MIC) P. aeruginosa E411-17: 8 µM
  MIC: 16 µM (≈ 19.1 µg/mL)
P. aeruginosa E411-17; E411-17, pH 6.21
  MIC: 16 µM (≈ 19.1 µg/mL)
P. aeruginosa E411-17; E411-17, pH 7.22
  Antimicrobial activity (MIC): 4 to 8 µM
P. aeruginosa E411-17; E411-17, pH 8.13
  MIC: 4 µM (≈ 4.77 µg/mL)
S. epidermidis 1457
  MIC: 4 µM (≈ 4.77 µg/mL)
S. aureus USA300 LAC; USA300, pH 6.21, read-out: Antimicrobial activity (MIC)
  MIC: 8 µM (≈ 9.55 µg/mL)
S. aureus USA300 LAC; USA300, pH 7.22, read-out: Antimicrobial activity (MIC)
  MIC: 4 µM (≈ 4.77 µg/mL)
S. aureus USA300 LAC; USA300, pH 8.13, read-out: Antimicrobial activity (MIC)
  MIC: 2 µM (≈ 2.39 µg/mL)
S. aureus USA300 LAC; [5]
  MIC: 4 µM (≈ 4.77 µg/mL)
S. aureus USA300 LAC; USA300, read-out: Antimicrobial activity (MIC) S. aureus USA300
  MIC: 4 µM (≈ 4.77 µg/mL)
A. baumannii B28-16
  Antimicrobial activity (MIC) A. baumannii B28-16: 4 µM
E. coli E423-17; E423-17
  Antimicrobial activity (MIC) E. coli E423-17: 8 µM

## CC(=O)NC[C@H]1CN(c2ccc(N3CCOCC3)c(F)c2)C(=O)O1 [Linezolid]
[1]
  change in MIC with dilution of MHB: essentially no changes
S. aureus USA300 LAC; [2]
  MIC: 8 to 16 µM (≈ 2.7 to 5.4 µg/mL)
S. aureus USA300 LAC; Staphylococcus aureus, MRSA / USA300, MRSA in MHB, NaCl (150 mM), read-out: Antimicrobial activity (MIC)
  MIC: 8 µM (≈ 2.7 µg/mL)

## C/C(=C\C(=O)OCCCCCCCCC(=O)O)C[C@@H]1OC[C@H](C[C@@H]2O[C@H]2[C@@H](C)[C@H](C)O)[C@@H](O)[C@H]1O [Muporicin]
[1]
  change in MIC with dilution of MHB: essentially no changes
S. aureus USA300 LAC; MRSA in MHB
  change of MIC / activity: fourfold
S. aureus USA300 LAC; MRSA in MHB, 10% serum
  Antimicrobial activity (MIC): 4 µM
S. aureus USA300 LAC; MRSA in MHB, 20% serum
  Antimicrobial activity (MIC): 4 µM
S. aureus USA300 LAC; MRSA in MHB, NaCl (150 mM)
  Antimicrobial activity (MIC): 1 µM
S. aureus USA300 LAC; MRSA in MHB, pH 6.3
  Antimicrobial activity (MIC): 0.5 µM
S. aureus USA300 LAC; MRSA in MHB, pH 7.2
  Antimicrobial activity (MIC): 1 µM

## NC[C@H]1O[C@H](O[C@H]2[C@H](O)[C@@H](O[C@H]3O[C@H](CO)[C@@H](O)[C@H](N)[C@H]3O)[C@H](N)C[C@@H]2N)[C@H](N)C[C@@H]1O [Tobramycin]
[1]
  change in MIC with dilution of MHB: essentially no changes
S. aureus USA300 LAC; Staphylococcus aureus, MRSA / USA300, MRSA in MHB, 10% serum, read-out: Antimicrobial activity (MIC)
  MIC: 2 to 4 µM (≈ 0.935 to 1.87 µg/mL)
S. aureus USA300 LAC; [3]
  MIC: 4 µM (≈ 1.87 µg/mL)
S. aureus USA300 LAC; [4]
  MIC: 2 µM (≈ 0.935 µg/mL)

## FKRIVQRIKDFLRNLV [FK-16, reference compound]
S. aureus USA300 LAC; MHB 12.5%
  Antimicrobial activity (MIC): active
S. aureus USA300 LAC; MHB 100%
  Antimicrobial activity (MIC): active
E. coli E423-17; MHB 12.5%
  Antimicrobial activity (MIC): active
E. coli E423-17; MHB 100%
  Antimicrobial activity (MIC): active

## GGLKKLGKKLEGAGKRVFKASEKALPVVVGIKAIGK (listed as Aedes aegypti) [Aedesin]
E. coli
  MIC against E. coli: 2 to 4 µg/mL

## GIWSSIKNLASKAWNSDIGQSLRNKAAGAINKFVADKIGVTPSQAAS (vaejovis mexicanus) [Vejovine]
E. coli
  MIC against E. coli: 4.4 to 20 µM

## GVFDIIKGAGKQLIARAMGKIAEKVGLNKDGN (listed as Leptodactylus pustulatus) [Ocellatin-PT8]
E. coli
  MIC against E. coli: 60 µM

## GWLKKIGKKIERVGQHTRDATIQGLGIAQQAANVAATAR (Drosophila melanogaster) [Sarcotoxin IA]
E. coli
  MIC against E. coli: 0.2 to 6.3 µg/mL

## KEKIGKEFKR-NH2 (C-terminus assumed) [KE-10]
S. aureus USA300 LAC; [5]
  MIC: >64 µM
E. coli E423-17; E423-17
  Antimicrobial activity (MIC): >64 µM

## KRIVQRIK-NH2 [W538]
P. aeruginosa E411-17; E411-17
  Activity (MIC) P. aeruginosa: >32 µM
S. aureus USA300 LAC; MHB 12.5%
  Antimicrobial activity (MIC): > 64 µM
S. aureus USA300 LAC; USA300
  Activity (MIC) S. aureus: >32 µM
S. aureus USA300 LAC; [5]
  MIC: >64 µM
A. baumannii B28-16
  Activity (MIC) A. baumannii: >32 µM
K. pneumoniae E406-17
  Activity (MIC) K. pneumoniae: >32 µM
E. coli E423-17; E423-17
  Activity (MIC) E.coli: >32 µM
  Antimicrobial activity (MIC): >64 µM
E. coli E423-17; MHB 12.5%
  Antimicrobial activity (MIC): 8 µM
